Here are results for two compounds from patent US20110034472A1, “Novel Compounds for Treatment of Cancer and Disorders Associated With Angiogenesis Function” (UNIVERSITY OF SOUTHERN CALIFORNIA, priority 2004, published 2011).

Test [1] deals with MDA-MB-435 cells. The test can be described thus: MTT assay, continuous drug exposure for 48 hours (Table 3). The class given is cell-based, human. The following applies: Homo sapiens; for CC50: MDA-MB-435; for IC80: MDA-MB-435, read-out: CC80.
The conditions of test [2]: drugs with known mechanisms of cell cycle regulation; cited from earlier work.
Test [3] relates to DU145 prostate cancer cells. The experiment in a line: MTT cytotoxicity assay, DU145. The class given is cell-based. The conditions noted are these: Homo sapiens, DU-145, 72 hours continuous exposure, read-out: IC50 values (mean ± SD). How it is done:
(§1) The sensitivity of a panel of seven human cancer cell lines to SC144 was assessed by MTT-assay. […] The sensitivity towards SC144 was time- and dose-dependent.
(§2) Cytotoxicity was assessed by a 3-(4,5-dimethylthiazol-2-yl)-2,5-diphenyltetrazolium bromide assay as previously described (Carmichael et al. (1987) Cancer Res. 47:936-42). Briefly, cells were seeded in 96-well microtiter plates (PC3 and DU145 at 5,000 cells/well and LNCaP at 10,000 cells/well; breast and ovarian cells at 4,000 cells/well) and allowed to attach. Cells were subsequently treated with a continuous exposure to the corresponding drug for 72 hours. A 3-(4,5-dimethylthiazol-2-yl)-2,5-diphenyltetrazolium bromide solution (at a final concentration of 0.5 mg/mL) was added to each well and cells were incubated for 4 hours at 37° C. After removal of the medium, DMSO was added and the absorbance was read at 570 nm. All assays were done in triplicate. The IC50 was then determined for each drug from a plot of log(drug concentration) versus percentage of cell kill.

The test system of test [4] is HEY ovarian cancer cells. The experiment in a line: MTT cytotoxicity assay, HEY. The class given is cell-based, human. The following applies: Homo sapiens; HEY; 72 hours continuous exposure; read-out: IC50 values (mean ± SD). On the procedure: as §1, §2
Test [5] relates to MDA-MB-435 breast cancer cells. The test can be described thus: MTT cytotoxicity assay, MDA-MB-435. The format is cell-based, human. The conditions noted are these: Homo sapiens, 72 hours continuous exposure, read-out: IC50 values (mean ± SD). How it is done: as §1, §2
(§3) Cytotoxicity was assessed by a 3-(4,5-dimethylthiazol-2-yl)-2,5-diphenyltetrazolium bromide (MTT) assay as previously described.^9 Briefly, cells were seeded in 96-well microtiter plates and allowed to attach. Cells were subsequently treated with continuous exposure to the corresponding drug for 72 h. An MTT solution (at a final concentration of 0.5 mg/mL) was added to each well, and cells were incubated for 4 h at 37° C. After removal of the medium, DMSO was added and the absorbance was read at 570 nm. All assays were done in triplicate. The IC50 was then determined for each drug from a plot of log (drug concentration) versus percentage of cells killed.

In test [6] the test system is MDA-MB-435 cells. The test can be described thus: Annexin V/PI apoptosis analysis, SC144 and CPT. The format is cell-based, human. The conditions noted are these: 48 h; IC80. An excerpt: Cells were stained with annexin V/PI and analyzed by flow cytometry. Cells in the bottom left quadrant of each panel (Annexin V-negative, PI-negative) are viable, whereas cells in the bottom right quadrant (Annexin V-positive, PI-negative) are in the early stages of apoptosis, and cells in the top right quadrant (Annexin V-positive, PI-positive) are in later stages of apoptosis and necrosis.
An early event in apoptotic cell death is the translocation of the phosphatidyl-serine residues to the outer part of the cell membrane. This event precedes nuclear breakdown, DNA fragmentation, the appearance of most apoptosis-associated molecules, and is readily measured by annexin V binding assay. By this method, SC144 was compared with CPT.

For test [7], the system named is MDA-MB-468 breast cancer cells. The experiment in a line: MTT cytotoxicity assay, MDA-MB-468. The following applies: Homo sapiens, 72 hours continuous exposure, read-out: IC50 values (mean ± SD). The format is cell-based. On the procedure: as §1, §2
Test [8] deals with PC3 prostate cancer cells. The experiment in a line: MTT cytotoxicity assay, PC3. The following applies: Homo sapiens; PC3; 72 hours continuous exposure; read-out: IC50 values (mean ± SD). The class given is cell-based. On the procedure:
as §1, §2

The test system of test [9] is LNCaP prostate cancer cells. The test can be described thus: MTT cytotoxicity assay, LNCaP. The format is cell-based. The conditions noted are these: Homo sapiens, 72 hours continuous exposure, read-out: IC50 values (mean ± SD). On the procedure: as §2, §3
Test [10] has as its system DU145 cells. The experiment in a line: Annexin V/propidium iodide apoptosis assay, DU145. The following applies: 72 hours exposure, IC80. The format is cell-based, human. How it is done: FIG. 19 illustrates apoptosis analysis of DU145 cells treated with SC21 or CPT (IC80). Cells were treated with SC21 or CPT for 24, 48, and 72 h, harvested, stained with annexin V/propidium iodide and analyzed by flow cytometry. Untreated control cells (24 and 48 h) were also included in the analysis. Annexin VFITC signals are recorded in FL1-H or […] and propidium iodide in FL2-H or […]. Cells in the bottom left quadrant (annexin V-negative, propidium iodide-negative) are viable, whereas cells in the right quadrant (annexin V-positive, propidium iodide-negative) are in the early stages of apoptosis, and the cells in the top right quadrant (annexin V-positive, propidium iodide-positive) are in later stages of apoptosis and necrosis.
To quantify drug-induced apoptosis, annexin V/propidium iodide staining was done followed by flow cytometry. […] The resulting fluorescence (FLH-1 channel for green fluorescence and FLH-2 channel for red fluorescence) was measured by flow cytometry using a FACScan flow cytometer (Becton Dickinson).
SC21 and CPT-induced apoptosis was measured by flow cytometry (FIG. 18). SC21 at an IC80 dose for 72 hours induced 12% to 15% apoptosis as measured by calculating sub-G0/G1 population. […] This event precedes nuclear breakdown, DNA fragmentation, the appearance of most apoptosis-associated molecules, and is readily measured by annexin V binding assay. […]

The subject of test [11] is PC3 and DU145 cells. The experiment in a line: Apoptosis by sub-G0/G1 population (flow cytometry). The class given is cell-based, human. The conditions noted are these: IC80 dose for 72 hours. On the procedure: Apoptotic cell population increased with time in PC3 and DU145 treated with SC21 and CPT.
SC21 and CPT-induced apoptosis was measured by flow cytometry (FIG. 18). SC21 at an IC80 dose for 72 hours induced 12% to 15% apoptosis as measured by calculating sub-G0/G1 population. […] An early event in apoptotic cell death is the translocation of the phosphatidyl-serine residues to the outer region of the cell membrane. This event precedes nuclear breakdown, DNA fragmentation, the appearance of most apoptosis-associated molecules, and is readily measured by annexin V binding assay. By this method, we compared SC21 with CPT.

Test [12] concerns MCF-7 breast cancer cells. The experiment in a line: MTT cytotoxicity assay, MCF-7. The class given is cell-based, human. The conditions noted are these: Homo sapiens, MCF7; MCF-7; 72 hours continuous exposure; read-out: IC50 values (mean ± SD). On the procedure:
as §1, §2

Molecules are shown by their SMILES.

`O=c1[nH]cc(F)c(=O)[nH]1` [5-Fluorouracil]: in [1], the CC50 turned out to be 29000 ± 10700 nM and the IC80 worked out at 100000 ± 10 nM. In addition, in test [2], the Cell cycle profile result is listed as “S-phase”.
As to `CC[C@@]1(O)C(=O)OCc2c1cc1n(c2=O)Cc2cc3ccccc3nc2-1` [CPT, Camptothecin, reference compound], the IC50 worked out at 25 ± 7 nM in test [3]; 35 ± 7 nM in [4]; 27 ± 2 nM in [5]; 100 ± 2 nM in test [7]; 900 ± 210 nM in [8]; 25 ± 6 nM in test [9]. Moreover, the IC50 in test [12] turned out to be 30 ± 3 nM. In test [1], the CC50 was 30 ± 2 nM. Moreover, in [1], the IC80 was found to be 100 ± 2 nM. Besides, the early-apoptotic cells in test [6] was 34%. Moreover, the late-apoptosis/necrosis in [6] is given as 39%. Also, in test [10], the “early plus late apoptotic cells” value is listed as 59%. In test [11], the “apoptosis (sub-G0/G1 population)” value is reported as 30%.
